From article PMC9719519, “Non-classical ferroptosis inhibition by a small molecule targeting PHB2” (Nature Communications, 2022)

Legend:
Assay in all cases: biochemical
Set-up in all cases: Eurofins recombinant human kinase profiling, remaining kinase activity as % of control, 10 uM ATP
Conditions in all cases: ATP 10 uM; read-out: %Ctrl@10 μM
CDK9/cyclin T1(h) = CDK9/cyclin T1(h) (Homo sapiens, UniProt P50750)
How it was run: (§1)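 Activity measured in a commercial panel of 401 recombinant human protein kinases run as a kinase profiling service.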

CK2α2(h) = target: T1, CK2α2(h) (Homo sapiens, UniProt P19784)
T1 construct: gene CSNK2A2
How it was run: as §1

CLK2(h) = CLK2(h) (Homo sapiens, UniProt P49760)
How it was run: as §1

DCAMKL2(h) = target: T2, DCAMKL2(h) (Homo sapiens, UniProt Q8N568)
T2 construct: gene DCLK2
How it was run: as §1

Fms(h) = target: T3, Fms(h) (Homo sapiens, UniProt P07333)
T3 construct: gene CSF1R
How it was run: as §1

MAP4K3(h) = MAP4K3(h) (Homo sapiens, UniProt Q8IVH8)
How it was run: as §1

MLK3(h) = target: T4, MLK3(h) (Homo sapiens, UniProt Q16584)
T4 construct: gene MAP3K11
How it was run: as §1

NEK7(h) = NEK7(h) (Homo sapiens, UniProt Q8TDX7)
How it was run: as §1

PAK6(h) = PAK6(h) (Homo sapiens, UniProt Q9NQU5)
How it was run: as §1

PDGFRα(V561D)(h) = target: T5, PDGFRα(V561D)(h) (Homo sapiens, UniProt P16234, V561D)
T5 construct: gene PDGFRA
How it was run: as §1

PKCε(h) = target: T6, PKCε(h) (Homo sapiens, UniProt Q02156)
T6 construct: gene PRKCE
How it was run: as §1

PRK2(h) = target: T7, PRK2(h) (Homo sapiens, UniProt Q16513)
T7 construct: gene PKN2
How it was run: as §1

PTK5(h) = target: T8, PTK5(h) (Homo sapiens, UniProt P42685)
T8 construct: gene FRK
How it was run: as §1

PhKγ1(h) = target: T9, PhKγ1(h) (Homo sapiens, UniProt Q16816)
T9 construct: gene PHKG1
How it was run: as §1

Rsk3(h) = target: T10, Rsk3(h) (Homo sapiens, UniProt Q15349)
T10 construct: gene RPS6KA2
How it was run: as §1

SRPK1(h) = SRPK1(h) (Homo sapiens, UniProt Q96SB4)
How it was run: as §1

Snk(h) = target: T11, Snk(h) (Homo sapiens, UniProt Q9NYY3)
T11 construct: gene PLK2
How it was run: as §1

TAO3(h) = target: T12, TAO3(h) (Homo sapiens, UniProt Q9H2K8)
T12 construct: gene TAOK3
How it was run: as §1

TSSK4(h) = TSSK4(h) (Homo sapiens, UniProt Q6SA08)
How it was run: as §1

Tie2(Y897S)(h) = target: T13, Tie2(Y897S)(h) (Homo sapiens, UniProt Q02763, Y897S)
T13 construct: gene TEK
How it was run: as §1

TrkC(h) = target: T14, TrkC(h) (Homo sapiens, UniProt Q16288)
T14 construct: gene NTRK3
How it was run: as §1

cSRC(h) = target: T15, cSRC(h) (Homo sapiens, UniProt P12931)
T15 construct: gene SRC
How it was run: as §1

T14 sequence (Q16288 whole entry): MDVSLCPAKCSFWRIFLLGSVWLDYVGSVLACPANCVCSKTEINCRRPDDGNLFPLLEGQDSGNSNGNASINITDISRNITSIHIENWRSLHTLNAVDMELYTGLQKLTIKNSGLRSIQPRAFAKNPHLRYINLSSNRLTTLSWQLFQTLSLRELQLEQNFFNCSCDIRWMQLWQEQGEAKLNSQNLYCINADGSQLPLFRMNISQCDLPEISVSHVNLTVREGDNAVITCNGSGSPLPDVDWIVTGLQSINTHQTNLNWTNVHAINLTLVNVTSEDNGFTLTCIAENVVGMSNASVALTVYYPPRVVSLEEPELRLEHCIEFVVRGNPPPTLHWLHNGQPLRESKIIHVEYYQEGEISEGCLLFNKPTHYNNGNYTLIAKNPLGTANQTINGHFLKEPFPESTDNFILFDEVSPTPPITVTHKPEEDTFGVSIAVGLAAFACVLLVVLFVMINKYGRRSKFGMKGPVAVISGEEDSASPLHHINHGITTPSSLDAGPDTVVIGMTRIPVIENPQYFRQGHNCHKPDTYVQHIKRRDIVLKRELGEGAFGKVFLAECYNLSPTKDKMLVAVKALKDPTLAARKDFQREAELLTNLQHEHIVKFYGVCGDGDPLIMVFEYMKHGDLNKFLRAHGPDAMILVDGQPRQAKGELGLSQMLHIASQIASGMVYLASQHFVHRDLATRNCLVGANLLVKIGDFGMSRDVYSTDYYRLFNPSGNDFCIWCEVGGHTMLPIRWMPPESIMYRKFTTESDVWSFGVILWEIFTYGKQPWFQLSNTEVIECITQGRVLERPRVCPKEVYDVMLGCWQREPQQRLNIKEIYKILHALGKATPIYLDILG
T15 sequence (P12931 whole entry): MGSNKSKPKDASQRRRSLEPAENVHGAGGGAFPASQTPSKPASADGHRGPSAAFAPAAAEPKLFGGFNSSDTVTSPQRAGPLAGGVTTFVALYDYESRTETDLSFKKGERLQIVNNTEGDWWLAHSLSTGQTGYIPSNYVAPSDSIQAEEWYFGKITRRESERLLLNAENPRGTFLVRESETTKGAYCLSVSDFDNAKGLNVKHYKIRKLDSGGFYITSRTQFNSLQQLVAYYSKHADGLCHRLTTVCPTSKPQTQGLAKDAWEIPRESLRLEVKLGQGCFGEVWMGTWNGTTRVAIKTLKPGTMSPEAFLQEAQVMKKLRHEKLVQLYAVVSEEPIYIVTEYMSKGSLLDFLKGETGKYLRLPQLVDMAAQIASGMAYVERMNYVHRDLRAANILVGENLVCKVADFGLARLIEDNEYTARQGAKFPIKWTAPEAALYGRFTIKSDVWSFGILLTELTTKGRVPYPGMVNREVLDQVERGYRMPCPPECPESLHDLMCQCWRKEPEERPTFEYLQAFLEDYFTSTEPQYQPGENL
Sequence of SRPK1(h) (Q96SB4 whole entry): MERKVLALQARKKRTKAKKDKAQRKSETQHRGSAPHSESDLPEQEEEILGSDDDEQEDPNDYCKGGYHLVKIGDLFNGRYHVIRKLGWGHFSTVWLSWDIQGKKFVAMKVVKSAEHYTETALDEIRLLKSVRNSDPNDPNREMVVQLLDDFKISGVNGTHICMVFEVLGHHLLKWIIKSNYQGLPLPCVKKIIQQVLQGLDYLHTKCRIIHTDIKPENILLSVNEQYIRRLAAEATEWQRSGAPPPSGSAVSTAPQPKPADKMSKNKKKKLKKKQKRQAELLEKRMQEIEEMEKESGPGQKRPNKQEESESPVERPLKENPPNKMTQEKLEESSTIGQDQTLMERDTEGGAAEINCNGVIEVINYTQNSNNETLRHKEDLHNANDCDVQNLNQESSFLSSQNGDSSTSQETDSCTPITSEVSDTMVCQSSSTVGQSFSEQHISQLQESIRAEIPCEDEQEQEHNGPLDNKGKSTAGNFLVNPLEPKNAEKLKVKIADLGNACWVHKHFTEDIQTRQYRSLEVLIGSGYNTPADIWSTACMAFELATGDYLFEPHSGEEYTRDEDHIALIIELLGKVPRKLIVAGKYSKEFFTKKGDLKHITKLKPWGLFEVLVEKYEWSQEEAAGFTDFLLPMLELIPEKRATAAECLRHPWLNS
T4 sequence (Q16584 whole entry): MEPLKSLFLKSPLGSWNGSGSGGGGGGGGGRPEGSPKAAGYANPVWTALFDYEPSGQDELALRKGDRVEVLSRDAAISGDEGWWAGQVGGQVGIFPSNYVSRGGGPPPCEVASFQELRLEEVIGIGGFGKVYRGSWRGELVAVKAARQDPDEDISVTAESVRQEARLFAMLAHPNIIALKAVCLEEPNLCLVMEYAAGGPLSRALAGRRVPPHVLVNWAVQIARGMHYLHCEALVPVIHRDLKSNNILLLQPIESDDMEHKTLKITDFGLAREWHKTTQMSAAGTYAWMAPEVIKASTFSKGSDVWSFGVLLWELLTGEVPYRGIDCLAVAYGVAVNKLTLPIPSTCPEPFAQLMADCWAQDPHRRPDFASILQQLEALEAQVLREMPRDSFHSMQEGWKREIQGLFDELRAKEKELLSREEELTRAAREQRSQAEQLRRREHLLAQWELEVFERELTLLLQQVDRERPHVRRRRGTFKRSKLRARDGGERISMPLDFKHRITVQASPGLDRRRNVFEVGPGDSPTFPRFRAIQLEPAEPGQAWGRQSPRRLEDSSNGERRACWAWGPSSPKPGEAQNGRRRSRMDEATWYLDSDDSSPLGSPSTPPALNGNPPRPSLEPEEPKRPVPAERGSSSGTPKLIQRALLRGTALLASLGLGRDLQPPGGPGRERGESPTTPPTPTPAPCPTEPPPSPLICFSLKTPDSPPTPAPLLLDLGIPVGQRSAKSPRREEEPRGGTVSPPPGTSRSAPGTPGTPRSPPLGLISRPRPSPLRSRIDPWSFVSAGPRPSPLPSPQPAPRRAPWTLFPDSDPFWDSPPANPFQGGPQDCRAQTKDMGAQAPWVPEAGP
Sequence of MAP4K3(h) (Q8IVH8 whole entry): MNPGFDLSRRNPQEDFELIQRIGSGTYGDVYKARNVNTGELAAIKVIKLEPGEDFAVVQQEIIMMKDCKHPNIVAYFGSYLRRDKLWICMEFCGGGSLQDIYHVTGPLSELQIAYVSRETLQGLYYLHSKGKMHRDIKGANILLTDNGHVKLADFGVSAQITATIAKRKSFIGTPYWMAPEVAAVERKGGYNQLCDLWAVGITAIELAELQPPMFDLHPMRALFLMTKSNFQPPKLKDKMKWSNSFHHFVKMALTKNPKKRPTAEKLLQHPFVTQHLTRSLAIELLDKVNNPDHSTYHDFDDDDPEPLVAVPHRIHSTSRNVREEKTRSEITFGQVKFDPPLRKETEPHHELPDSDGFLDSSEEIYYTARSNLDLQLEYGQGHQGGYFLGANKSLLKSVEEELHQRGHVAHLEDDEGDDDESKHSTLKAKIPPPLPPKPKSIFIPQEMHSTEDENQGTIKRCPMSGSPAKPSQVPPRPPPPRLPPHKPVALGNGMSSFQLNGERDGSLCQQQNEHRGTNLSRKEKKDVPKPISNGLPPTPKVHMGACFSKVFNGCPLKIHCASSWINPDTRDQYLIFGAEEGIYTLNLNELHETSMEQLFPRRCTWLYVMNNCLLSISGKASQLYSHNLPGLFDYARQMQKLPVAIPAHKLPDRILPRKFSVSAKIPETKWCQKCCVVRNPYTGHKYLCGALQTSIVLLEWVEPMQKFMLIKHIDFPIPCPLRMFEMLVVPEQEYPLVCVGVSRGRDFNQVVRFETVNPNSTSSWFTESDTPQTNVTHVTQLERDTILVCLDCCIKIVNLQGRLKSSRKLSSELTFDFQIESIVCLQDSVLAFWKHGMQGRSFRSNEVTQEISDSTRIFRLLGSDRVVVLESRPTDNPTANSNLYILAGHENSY
T3 sequence (P07333 whole entry): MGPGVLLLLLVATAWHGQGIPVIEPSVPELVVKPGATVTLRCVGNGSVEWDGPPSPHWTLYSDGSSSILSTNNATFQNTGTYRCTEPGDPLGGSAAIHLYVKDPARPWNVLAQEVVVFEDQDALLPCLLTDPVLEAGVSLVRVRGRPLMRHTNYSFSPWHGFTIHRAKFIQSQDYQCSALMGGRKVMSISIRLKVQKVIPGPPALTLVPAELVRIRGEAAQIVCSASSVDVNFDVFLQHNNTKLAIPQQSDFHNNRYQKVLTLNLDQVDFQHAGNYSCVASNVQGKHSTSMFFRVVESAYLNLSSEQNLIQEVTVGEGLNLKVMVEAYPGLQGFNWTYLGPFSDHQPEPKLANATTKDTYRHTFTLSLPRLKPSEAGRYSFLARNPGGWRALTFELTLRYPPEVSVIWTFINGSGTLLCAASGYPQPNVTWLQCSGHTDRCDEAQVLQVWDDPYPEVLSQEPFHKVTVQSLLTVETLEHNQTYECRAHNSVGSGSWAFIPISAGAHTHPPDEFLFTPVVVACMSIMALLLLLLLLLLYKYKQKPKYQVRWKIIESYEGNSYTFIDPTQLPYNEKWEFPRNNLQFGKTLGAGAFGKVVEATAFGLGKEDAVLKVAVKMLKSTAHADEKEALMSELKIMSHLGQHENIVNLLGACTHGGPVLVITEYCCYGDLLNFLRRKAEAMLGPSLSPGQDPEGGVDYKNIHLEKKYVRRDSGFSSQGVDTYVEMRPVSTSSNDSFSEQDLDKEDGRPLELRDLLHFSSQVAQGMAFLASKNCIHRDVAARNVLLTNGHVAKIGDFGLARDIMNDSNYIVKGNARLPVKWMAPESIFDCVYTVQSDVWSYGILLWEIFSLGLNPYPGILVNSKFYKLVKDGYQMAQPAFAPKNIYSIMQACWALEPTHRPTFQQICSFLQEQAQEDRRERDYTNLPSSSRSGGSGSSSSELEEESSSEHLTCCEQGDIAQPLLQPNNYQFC
Sequence of NEK7(h) (Q8TDX7 whole entry): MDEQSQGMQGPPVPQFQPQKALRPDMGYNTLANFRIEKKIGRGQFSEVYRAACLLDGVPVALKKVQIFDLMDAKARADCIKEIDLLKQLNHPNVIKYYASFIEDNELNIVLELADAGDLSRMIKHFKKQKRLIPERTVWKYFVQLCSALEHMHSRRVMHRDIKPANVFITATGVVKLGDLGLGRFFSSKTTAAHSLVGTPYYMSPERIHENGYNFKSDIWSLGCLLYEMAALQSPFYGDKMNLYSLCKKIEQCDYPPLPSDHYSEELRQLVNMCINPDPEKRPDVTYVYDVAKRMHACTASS

C1=C(c2nc(-c3cnn(C4CCNCC4)c3)cn3cc(-c4ccccc4)nc23)CCOC1 [YL-939]
remaining activity at 10 µM (CDK9/cyclin T1(h)): 119% | remaining activity at 10 µM (CK2α2(h)): 98% | remaining activity at 10 µM (CLK2(h)): 71% | remaining activity at 10 µM (DCAMKL2(h)): 79% | remaining activity at 10 µM (Fms(h)): 122% | remaining activity at 10 µM (MAP4K3(h)): 79% | remaining activity at 10 µM (MLK3(h)): 111% | remaining activity at 10 µM (NEK7(h)): 89% | remaining activity at 10 µM (PAK6(h)): 65% | remaining activity at 10 µM (PDGFRα(V561D)(h)): 101% | remaining activity at 10 µM (PKCε(h)): 95% | remaining activity at 10 µM (PRK2(h)): 89% | remaining activity at 10 µM (PTK5(h)): 75% | remaining activity at 10 µM (PhKγ1(h)): 85% | remaining activity at 10 µM (Rsk3(h)): 96% | remaining activity at 10 µM (SRPK1(h)): 107% | remaining activity at 10 µM (Snk(h)): 112% | remaining activity at 10 µM (TAO3(h)): 102% | remaining activity at 10 µM (TSSK4(h)): 97% | remaining activity at 10 µM (Tie2(Y897S)(h)): 91% | remaining activity at 10 µM (TrkC(h)): 64% | remaining activity at 10 µM (cSRC(h)): 78%
